Assay results as given in US6552188B2, “Unsymmetrical cyclic diamine compound” (Kowa Co., Ltd., priority 2001, dated 2003).
Like-named read-outs stand apart in the source and are kept apart here.

Test system: adhesion of U937 cells to human umbilical venous endothelial cells (HUVEC)
Experiment: Inhibitory effect on cell adhesion (fluorescence-labeled U937 adhered to IL-1β- or TNFα-stimulated HUVEC)
Type: cell-based
Details: compound at 1 μM
Protocol: (Inhibitory Effect on Cell Adhesion)
This test was conducted by reference to the method of Ross et al. (J. Biol. Chem., 267, 8537-8543 (1992)). More specifically, after human umbilical venous endothelial cells (HUVEC) were cultured on a 48-well plate to confluent growth, IL-1β or TNFα was added thereto. Upon elapsed time of 5 hours after the addition, U937, which is a human monocytic/histocytic cell fluorescence-labeled with PKH2 (product of Dainippon Pharmaceutical Co., Ltd.), was added in a proportion of 1×10^6 cells per well. After the plate was left at rest at room temperature for 1 hour, unadhered U937 was washed out and lysed in 1% Triton X-100 to measure a remaining fluorescence intensity (excitation wavelength: 480 nm; measuring wavelength: 530 nm). HUVEC and U937 were cultured in EGM-2 (product of Sanko Junyaku K.K.) and 10% FCS-containing RPMI1640, respectively. Each test agent was added to HUVEC upon the addition of IL-1β or TNFα and to U937 24 hours prior to the cell adhesion test. The inhibitory activity was calculated out according to the equation [100−(C−B)/(A−B)×100(%)], wherein A is the number of U937 cells adhered to HUVEC stimulated by IL-1β or TNFα when no test agent was added, B is the number of U937 cells adhered to HUVEC not stimulated by IL-1β or TNFα when no test agent was added, and C is the number of U937 cells adhered to HUVEC stimulated by IL-1β or TNFα when the test agent was added. As control compounds, Test Compound 1 described in Japanese Patent Application Laid-Open No. 9-143075 and dilazep described in Japanese Patent Application Laid-Open No. 11-92382 were simultaneously evaluated.

[1] = U937 adhesion to HUVEC stimulated by IL-1β, read-out: Percent inhibition (%) Stimulation by IL-1β
[2] = U937 adhesion to HUVEC stimulated by TNFα, read-out: Percent inhibition (%) Stimulation by TNFα

| Structure (SMILES) | inhibition at 1 µM [1] [%] | inhibition at 1 µM [2] [%] |
| --- | --- | --- |
| COc1cc(C(=O)OCCCN2CCCN(CCCOC(=O)c3cc(OC)c(OC)c(OC)c3)CC2)cc(OC)c1OC [Dilazep, dilazep, reference compound] | 0 | 12 |
| COc1cc(-c2cccc(CN3CCN(Cc4ccnc(-c5cc(OC)c(OC)c(OC)c5)c4)CC3)c2)cc(OC)c1OC [Example 18, N-[3-(3,4,5-trimethoxyphenyl)benzyl]-N′-[[2-(3,4,5-trimethoxyphenyl)pyridin-4-yl]methyl]piperazine difumarate] | 37 | 54 |
| COc1cc(-c2cccc(CN3CCCN(Cc4ccnc(-c5cc(OC)c(OC)c(OC)c5)c4)CC3)c2)cc(OC)c1OC [Example 19, N-[3-(3,4,5-trimethoxyphenyl)benzyl]-N′-[[2-(3,4,5-trimethoxyphenyl)pyridin-4-yl]methyl]homopiperazine difumarate] | 33 | 58 |
| COc1cc(-c2cc(CN3CCN(Cc4ccnc(-c5ccccc5)c4)CC3)ccn2)cc(OC)c1OC [Example 21, N-[(2-phenylpyridin-4-yl)methyl]-N′-[[2-(3,4,5-trimethoxyphenyl)pyridin-4-yl]methyl]piperazine difumarate] | 44 | 60 |
| COc1ccc(-c2cc(CN3CCN(Cc4ccnc(-c5cc(OC)c(OC)c(OC)c5)c4)CC3)ccn2)cc1 [Example 25, N-[[2-(4-methoxyphenyl)pyridin-4-yl]methyl]-N′-[[2-(3,4,5-trimethoxyphenyl)pyridin-4-yl]methyl]-piperazine difumarate] | 78 | 70 |
| COc1ccc(-c2cc(CN3CCN(Cc4ccnc(-c5cc(OC)c(OC)c(OC)c5)c4)CC3)ccn2)cc1OC [Example 26, N-[[2-(3,4-dimethoxyphenyl)pyridin-4-yl]methyl]-N′-[[2-(3,4,5-trimethoxyphenyl)pyridin-4-yl]methyl]piperazine difumarate] | 75 | 69 |
| COc1cc(-c2cc(CN3CCN(CCc4ccc5c(OC)c(OC)c(OC)cc5c4)CC3)ccn2)cc(OC)c1OC [Example 37, N-[2-(5,6,7-trimethoxynaphthalen-2-yl)ethyl]-N′-[[2-(3,4,5-trimethoxyphenyl)pyridin-4-yl]methyl]-piperazine dimaleate] | 68 | 56 |
| COc1cc(-c2cc(CN3CCN(Cc4ccc5c(OC)c(OC)c(OC)cc5c4)CC3)ccn2)cc(OC)c1OC [Example 38, N-[(5,6,7-trimethoxynaphthalen-2-yl)methyl]-N′-[[2-(3,4,5-trimethoxyphenyl)pyridin-4-yl]methyl]-piperazine dimaleate] | 59 | 76 |
| COc1cc(/C=C/CCCN2CCN(Cc3ccnc(-c4cc(OC)c(OC)c(OC)c4)c3)CC2)cc(OC)c1OC [Example 40, N-[(E)-5-(3,4,5-trimethoxyphenyl)-4-pentenyl-]-N′-[[2-(3,4,5-trimethoxyphenyl)pyridin-4-yl]methyl]piperazine difumarate] | 44 | 55 |
| COc1cc(/C=C/CCCN2CCCN(Cc3ccnc(-c4cc(OC)c(OC)c(OC)c4)c3)CC2)cc(OC)c1OC [Example 41, N-[(E)-5-(3,4,5-trimethoxyphenyl)-4-pentenyl]-N′-[[2-(3,4,5-trimethoxyphenyl)pyridin-4-yl]methyl]homopiperazine difumarate] | 56 | 67 |
| COc1cc(-c2cc(CN3CCN(CCC/C=C/c4ccc(F)cc4)CC3)ccn2)cc(OC)c1OC [Example 42, N-[(E)-5-(4-fluorophenyl)-4-pentenyl]-N′-[[2-(3,4,5-trimethoxyphenyl)pyridin-4-yl]methyl]piperazine difumarate] | 54 | 56 |
| COc1cc(-c2cccc(C(=O)N3CCN(Cc4ccnc(-c5cc(OC)c(OC)c(OC)c5)c4)CC3)c2)cc(OC)c1OC [Example 56, N-[3-(3,4,5-trimethoxyphenyl)benzoyl]-N′-[[2-(3,4,5-trimethoxyphenyl)pyridin-4-yl]methyl]piperazine] | 76 | 52 |
